Results: patent US12378208B2, “N-substituted oseltamivir derivatives with antimicrobial activity” (THE HONG KONG POLYTECHNIC UNIVERSITY, priority 2019, dated 2025)

Molecular target: NA from A/H3N2 (Influenza A virus, UniProt O91745)
Assay: biochemical
Type: biochemical, seasonal A/H3N2
Conditions: for IC50: Table 4, Example 34

NA from A/H3N2, sequence (O91745 whole entry, looked up): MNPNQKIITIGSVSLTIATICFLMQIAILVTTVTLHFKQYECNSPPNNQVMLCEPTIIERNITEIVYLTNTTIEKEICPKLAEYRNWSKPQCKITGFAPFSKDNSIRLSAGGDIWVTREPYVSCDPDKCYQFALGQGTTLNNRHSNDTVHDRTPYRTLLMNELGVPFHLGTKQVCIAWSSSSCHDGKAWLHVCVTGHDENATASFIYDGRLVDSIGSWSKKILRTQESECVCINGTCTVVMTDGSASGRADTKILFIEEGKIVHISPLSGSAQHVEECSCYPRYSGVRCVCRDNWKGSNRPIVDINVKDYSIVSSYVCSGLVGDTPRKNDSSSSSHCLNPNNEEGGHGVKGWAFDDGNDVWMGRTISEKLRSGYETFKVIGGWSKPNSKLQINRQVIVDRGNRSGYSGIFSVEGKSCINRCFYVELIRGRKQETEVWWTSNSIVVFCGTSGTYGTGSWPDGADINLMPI

## CCC(CC)O[C@@H]1C=C(C(=O)O)C[C@H](NC(=O)c2cc(-c3ccc(F)cc3)n[nH]2)[C@H]1NC(C)=O [OC-012]
  Inhibition rate, 1 μM: 33.62%
  Inhibition rate, 10 μM: 56.45%
  IC50: 11.6 µM

## CCC(CC)O[C@@H]1C=C(C(=O)O)C[C@H](NC(=O)c2cnn(Cc3cccc([N+](=O)[O-])c3)c2)[C@H]1NC(C)=O [OC-007]
  Inhibition rate, 1 μM: −5.33%
  Inhibition rate, 10 μM: 12.26%

## CCC(CC)O[C@@H]1C=C(C(=O)O)C[C@H](NCc2noc(-c3c(F)cccc3F)n2)[C@H]1NC(C)=O [Compound S13, (3R,4R,5S)-4-acetamido-5-(((5-(2,6-difluorophenyl)-1,2,4-oxadiazol-3-yl)methyl)amino)-3-(pentan-3-yloxy)cyclohex-1-ene-1-carboxylic acid]
  % Inhibition (1 nM): 0.0 ± 2.6%

## CCC(CC)O[C@@H]1C=C(C(=O)O)C[C@H](NCc2noc(-c3cccc([N+](=O)[O-])c3)n2)[C@H]1NC(C)=O [Compound S6, (3R,4R,5S)-4-acetamido-5-(((5-(3-nitrophenyl)-1,2,4-oxadiazol-3-yl)methyl)amino)-3-(pentan-3-yloxy)cyclohex-1-ene-1-carboxylic acid]
  % Inhibition (1 nM): 18.4 ± 3.6%

## CCC(CC)O[C@@H]1C=C(C(=O)O)C[C@H](NCc2ccc(-c3ccc(F)cc3)o2)[C@H]1NC(C)=O [Compound S15, (3R,4R,5S)-4-Acetamido-5-(((5-(4-fluorophenyl)furan-2-yl)methyl)amino)-3-(pentan-3-yloxy)cyclohex-1-ene-1-carboxylic acid]
  % Inhibition (1 nM): 3.2 ± 3.7%

## CCC(CC)O[C@@H]1C=C(C(=O)O)C[C@H](NCc2noc(-c3ccc4ccccc4c3)n2)[C@H]1NC(C)=O [Compound S9, (3R,4R,5S)-4-acetamido-5-(((5-(naphthalen-2-yl)-1,2,4-oxadiazol-3-yl)methyl)amino)-3-(pentan-3-yloxy)cyclohex-1-ene-1-carboxylic acid]
  % Inhibition (1 nM): 1.5 ± 1.2%

## CCC(CC)O[C@@H]1C=C(C(=O)O)C[C@H](NC(=O)c2cc(-c3ccc(Cl)cc3)nn2CC2CCCCC2)[C@H]1NC(C)=O [OC-019]
  Inhibition rate, 1 μM: 11.62%
  Inhibition rate, 10 μM: 48.50%

## CCC(CC)O[C@@H]1C=C(C(=O)O)C[C@H](NC(=O)c2cc(C3CC3)nn2-c2ccccc2C)[C@H]1NC(C)=O [OC-029]
  Inhibition rate, 1 μM: 23.28%
  Inhibition rate, 10 μM: 72.80%
  IC50: 16.9 µM

## CCC(CC)O[C@@H]1C=C(C(=O)O)C[C@H](NC(=O)c2cnn(Cc3cccc(OC)c3)c2)[C@H]1NC(C)=O [OC-002]
  Inhibition rate, 1 μM: 6.12%
  Inhibition rate, 10 μM: 23.37%

## CCC(CC)O[C@@H]1C=C(C(=O)O)C[C@H](NC(=O)c2cnn(-c3ccccc3C)c2)[C@H]1NC(C)=O [OC-016]
  Inhibition rate, 1 μM: 12.74%
  Inhibition rate, 10 μM: 38.37%

## CCC(CC)O[C@@H]1C=C(C(=O)O)C[C@H](NCc2noc(-c3ccccc3C)n2)[C@H]1NC(C)=O [Compound S10, (3R,4R,5S)-4-acetamido-3-(pentan-3-yloxy)-5-(((5-(o-tolyl)-1,2,4-oxadiazol-3-yl)methyl)amino)cyclohex-1-ene-1-carboxylic acid]
  % Inhibition (1 nM): 0.5 ± 2.0%

## CCC(CC)O[C@@H]1C=C(C(=O)O)C[C@H](NC(=O)c2cc(-c3ccc(Cl)cc3)nn2CC2CC2)[C@H]1NC(C)=O [OC-015]
  Inhibition rate, 1 μM: 16.52%
  Inhibition rate, 10 μM: 31.50%

## CCC(CC)O[C@@H]1C=C(C(=O)O)C[C@H](NC(=O)c2cc(C3CC3)nn2-c2ccccc2)[C@H]1NC(C)=O [OC-013]
  Inhibition rate, 1 μM: 19.92%
  Inhibition rate, 10 μM: 30.41%

## CCC(CC)O[C@@H]1C=C(C(=O)O)C[C@H](NC(=O)c2cc(-c3ccc(OC)cc3)n[nH]2)[C@H]1NC(C)=O [OC-017]
  Inhibition rate, 1 μM: 14.83%
  Inhibition rate, 10 μM: 42.02%

## CCC(CC)O[C@@H]1C=C(C(=O)O)C[C@H](NC(=O)c2cnn(Cc3cccc(Cl)c3)c2)[C@H]1NC(C)=O [OC-003]
  Inhibition rate, 1 μM: 5.74%
  Inhibition rate, 10 μM: 23.88%

## CCC(CC)O[C@@H]1C=C(C(=O)O)C[C@H](NCc2ccc(-c3ccc(OC)cc3)o2)[C@H]1NC(C)=O [Compound S14, (3R,4R,5S)-4-Acetamido-5-(((5-(4-methoxyphenyl)furan-2-yl)methyl)amino)-3-(pentan-3-yloxy)cyclohex-1-ene-1-carboxylic acid]
  % Inhibition (1 nM): 14.7 ± 4.4%

## CCC(CC)O[C@@H]1C=C(C(=O)O)C[C@H](NC(=O)c2cc(C3CC3)n(-c3ccccc3)n2)[C@H]1NC(C)=O [OC-021]
  Inhibition rate, 1 μM: 7.13%
  Inhibition rate, 10 μM: 30.57%

## CCC(CC)O[C@@H]1C=C(C(=O)O)C[C@H](NC(=O)c2cc(-c3ccc(Cl)cc3)nn2CC2CCC2)[C@H]1NC(C)=O [OC-018]
  Inhibition rate, 1 μM: 11.12%
  Inhibition rate, 10 μM: 39.81%

## CCC(CC)O[C@@H]1C=C(C(=O)O)C[C@H](NC(=O)c2cc(-c3ccccc3)n[nH]2)[C@H]1NC(C)=O [OC-008]
  Inhibition rate, 1 μM: 5.84%
  Inhibition rate, 10 μM: 42.81%

## CCC(CC)O[C@@H]1C=C(C(=O)O)C[C@H](NC(=O)c2cc(-c3ccc(Cl)cc3)n[nH]2)[C@H]1NC(C)=O [OC-011]
  Inhibition rate, 1 μM: 14.65%
  Inhibition rate, 10 μM: 50.43%

## CCC(CC)O[C@@H]1C=C(C(=O)O)C[C@H](NCc2noc(-c3ccc(F)cc3)n2)[C@H]1NC(C)=O [Compound S3, (3R,4R,5S)-4-acetamido-5-(((5-(4-fluorophenyl)-1,2,4-oxadiazol-3-yl)methyl)amino)-3-(pentan-3-yloxy)cyclohex-1-ene-1-carboxylic acid]
  % Inhibition (1 nM): 0.0 ± 3.5%

## CCC(CC)O[C@@H]1C=C(C(=O)O)C[C@H](NC(=O)c2cc(C3CC3)n(-c3ccccc3C)n2)[C@H]1NC(C)=O [OC-028]
  Inhibition rate, 1 μM: 8.06%
  Inhibition rate, 10 μM: 60.91%
  IC50: 22.7 µM

## CCC(CC)O[C@@H]1C=C(C(=O)O)C[C@H](NC(=O)c2cc(C3CC3)n(-c3cccc(C)c3)n2)[C@H]1NC(C)=O [OC-023]
  Inhibition rate, 1 μM: 6.24%
  Inhibition rate, 10 μM: 34.75%

## CCC(CC)O[C@@H]1C=C(C(=O)O)C[C@H](NC(=O)c2cc(C3CC3)nn2-c2ccc(Br)cc2)[C@H]1NC(C)=O [OC-025]
  Inhibition rate, 1 μM: 2.19%
  Inhibition rate, 10 μM: 37.17%

## CCC(CC)O[C@@H]1C=C(C(=O)O)C[C@H](NC(=O)c2cc(-c3ccc(C(F)(F)F)cc3)n[nH]2)[C@H]1NC(C)=O [OC-009]
  Inhibition rate, 1 μM: 3.44%
  Inhibition rate, 10 μM: 46.76%

## CCC(CC)O[C@@H]1C=C(C(=O)O)C[C@H](NCc2noc(-c3ccc(Br)cc3)n2)[C@H]1NC(C)=O [Compound S5, (3R,4R,5S)-4-acetamido-5-(((5-(4-bromophenyl)-1,2,4-oxadiazol-3-yl)methyl)amino)-3-(pentan-3-yloxy)cyclohex-1-ene-1-carboxylic acid]
  % Inhibition (1 nM): 1.7 ± 2.1%

## CCC(CC)O[C@@H]1C=C(C(=O)O)C[C@H](NC(=O)c2cc(-c3cccs3)n[nH]2)[C@H]1NC(C)=O [OC-014]
  Inhibition rate, 1 μM: 21.57%
  Inhibition rate, 10 μM: 40.02%

## CCC(CC)O[C@@H]1C=C(C(=O)O)C[C@H](NCc2ccc(-c3ccccc3C)o2)[C@H]1NC(C)=O [Compound S16, (3R,4R,5S)-4-Acetamido-3-(pentan-3-yloxy)-5-(((5-(o-tolyl)furan-2-yl)methyl)amino)cyclohex-1-ene-1-carboxylic acid]
  % Inhibition (1 nM): 8.4 ± 1.8%

## CCC(CC)O[C@@H]1C=C(C(=O)O)C[C@H](NC(=O)c2cc(C3CC3)n(-c3ccc(Br)cc3)n2)[C@H]1NC(C)=O [OC-024]
  Inhibition rate, 1 μM: 5.84%
  Inhibition rate, 10 μM: 42.68%

## CCC(CC)O[C@@H]1C=C(C(=O)O)C[C@H](NCc2ccc(-c3cc(Cl)ccc3C)o2)[C@H]1NC(C)=O [Compound S21, (3R,4R,5S)-4-acetamido-5-(((5-(5-chloro-2-methylphenyl)furan-2-yl)methyl)amino)-3-(pentan-3-yloxy)cyclohex-1-ene-1-carboxylic acid]
  % Inhibition (1 nM): 4.8 ± 1.1%

## CCC(CC)O[C@@H]1C=C(C(=O)O)C[C@H](NCc2ccc(-c3cc(F)cc(F)c3)o2)[C@H]1NC(C)=O [Compound S17, (3R,4R,5S)-4-Acetamido-5-(((5-(3,5-difluorophenyl)furan-2-yl)methyl)amino)-3-(pentan-3-yloxy)cyclohex-1-ene-1-carboxylic acid]
  % Inhibition (1 nM): 3.7 ± 3.8%

## CCC(CC)O[C@@H]1C=C(C(=O)O)C[C@H](NCc2ccc(-c3cccc(Cl)c3)o2)[C@H]1NC(C)=O [Compound S19]
  % Inhibition (1 nM): 5.5 ± 2.4%

## CCC(CC)O[C@@H]1C=C(C(=O)O)C[C@H](NCc2ccc(-c3cccc4c3oc3ccccc34)o2)[C@H]1NC(C)=O [Compound S23, (3R,4R,5S)-4-acetamido-5-(((5-(dibenzo[b,d]furan-4-yl)furan-2-yl)methyl)amino)-3-(pentan-3-yloxy)cyclohex-1-ene-1-carboxylic acid]
  % Inhibition (1 nM): 10.9 ± 0.7%

## CCC(CC)O[C@@H]1C=C(C(=O)O)C[C@H](NCc2ccc(-c3ccc(OC)c(OC)c3)o2)[C@H]1NC(C)=O [Compound S18, (3R,4R,5S)-4-Acetamido-5-(((5-(3,4-dimethoxyphenyl)furan-2-yl)methyl)amino)-3-(pentan-3-yloxy)cyclohex-1-ene-1-carboxylic acid]
  % Inhibition (1 nM): 12.9 ± 1.2%

## CCC(CC)O[C@@H]1C=C(C(=O)O)C[C@H](NCc2noc(-c3ccccn3)n2)[C@H]1NC(C)=O [Compound S4]
  % Inhibition (1 nM): 17.1 ± 2.0%

## CCC(CC)O[C@@H]1C=C(C(=O)O)C[C@H](NC(=O)c2cnn(-c3ccc(OC)cc3)c2)[C@H]1NC(C)=O [OC-022]
  Inhibition rate, 1 μM: 6.31%
  Inhibition rate, 10 μM: 34.15%
